In article PMC10587159, “Biosynthesis and engineering of the nonribosomal peptides with a C-terminal putrescine” (Nature Communications, 2023):

Tested on: A1 domain of CsA1T1 (GdnA)
Assay: Adenylation activity of A1 domain (ATP/PPi exchange, pyrophosphate production assay)
Format: biochemical, Schlegelella brevitalea DSM 7029
Conditions: for relative activity of A1 domain for the activation of amino acids, Average: CsA1T1 1 μM, 10 mM amino acid, 2.5 mM ATP, pH 7.6, A360, L-Met = 100%, mean of n = 3; for selectivity of A1 domain for amino acids in words: response to reviewers on Supplementary Fig. 6a
Protocol: For pyrophosphate production assays, the reaction system contains 10 mM amino acid substrates, 2.5 mM ATP (Solarbio), 0.2 mM MESG (Medchemexpress), 1 U/mL purine nucleoside phosphorylase (Shanghai yuanye Bio-Technology Co., Ltd), 0.4 U/mL inorganic pyrophosphatase (Sigma), 150 mM hydroxylamine (Sigma) and 1 μM proteins in 100 μL buffer (50 mM Tris, 300 mM NaCl and 5 mM MgCl2, pH 7.6). The value was read at A360 in a SpectraMax M5 plate reader (Molecular Devices, Sunnyvale, California) in 96 well, clear-bottomed plates (Corning). A360 values were converted to pyrophosphate release, by comparing with a standard curve (KH2PO4 from 2 μM to 128 μM) for known quantities of pyrophosphate.

SMILES | relative activity of A1 domain for the activation of amino acids, Average [%] | selectivity of A1 domain for amino acids in words
N[C@@H](CCC(=O)O)C(=O)O [L-Glu] | 43.4238 | broad selectivity
N[C@@H](Cc1c[nH]cn1)C(=O)O [L-His] | 1.516 | –
CC[C@H](C)[C@H](N)C(=O)O [L-Ile] | 8.11 | weaker selectivity
CC(C)C[C@H](N)C(=O)O [L-Leu] | 48.0078 | –
NCCCC[C@H](N)C(=O)O [L-Lys] | – | no activity
C[S+]([O-])CC[C@H](N)C(=O)O (stereo partly drawn) [L-MetO] | 74.5064 | –
CSCC[C@H](N)C(=O)O [L-Met] | 100 | –
N[C@@H](Cc1ccccc1)C(=O)O [L-Phe] | 16.3434 | –
N[C@@H](CO)C(=O)O [L-Ser] | 10.8427 | –
C[C@@H](O)[C@H](N)C(=O)O [L-Thr] | 9.697 | –
N[C@@H](Cc1c[nH]c2ccccc12)C(=O)O [L-Trp] | 8.022 | –
CC(C)[C@H](N)C(=O)O [L-Val] | 4.884 | weaker selectivity
